Test [1] deals with Ischemic and Nonischemic Isolated Rat Heart. Briefly: Isolated perfused rat heart (Langendorff), global ischemia/reperfusion: cardiac function, flow and LDH release. More on the design: species or system rat (male Sprague-Dawley); FLOW (coronary blood flow): unit not given here. The conditions noted are these: for LDH (Lactate Dehydrogenase Release): Postischemia, cumulative over 30 min reperfusion, per g preischemia heart weight, lower = greater cardioprotection; for LDH/DP: ratio of cardioprotection to cardiodepression, lower = greater selectivity. As for the experimental part: Lactate dehydrogenase is an enzyme released in the heart during an ischemic event and is an index of cardiac cell necrosis. In the Grover et al. model, this is measured during reperfusion and an agent which provides for lower release levels of LDH is considered to offer greater cardioprotection since lower LDH indicates a smaller infarct size. Cardiac function is determined using the double product (DP) of heart rate times the left ventricular developed pressure (LVDP) divided by 1,000.
The lower the value for DP before ischemia for a given agent, the more cardiodepressant it is considered to be.
Male Sprague-Dawley rats (450-550 g) were used in all experiments. The rats were anesthetized using 30 mg/kg sodium pentobarbital (i.p.). They were intubated and then treated with i.v. heparin (1000 U/kg). While being mechanically ventilated, their hearts were perfused in situ via retrograde cannulation of the aorta. The hearts were then excised and quickly moved to a Langendorff apparatus where they were perfused with Krebs-Henseleit bicarbonate buffer (112 mM NaCl, 5 mM KCl, 1.2 mMMg SO4, 1 mM KH2 PO4, 1.25 mM CaCl2, 11.5 mM dextrose, and 2 mM pyruvate) at a constant pressure (75 mm Hg). A water filled latex balloon attached to a metal cannula was then inserted into the left ventricle and connected to a Statham pressure transducer for measurement of left ventricular pressure. The hearts were allowed to equilibrate for 15 minutes at which time end diastolic pressure (EDP) was adjusted to 5 mm Hg and this was maintained for 5 minutes. Pre-ischemia or pre-drug function, heart rate and coronary blood flow (extracorporeal electromagnetic flow probe, Carolina Medical Electronics, King, N.C.) were then measured. Cardiac function was determined using the double product of heart rate (HR) times left ventricular developed pressure (LVDP) divided by 1,000.
All of these hearts were treated with their respective drugs or vehicle for ten minutes. At this time, post-drug cardiac function and flow were measured and then the hearts were made globally ischemic by shutting off the buffer perfusion. The ischemia was maintained for 25 minutes at which time reperfusion with nondrug treated buffer was instituted. Reperfusion was maintained for 30 minutes and at this time reperfusion function and flow were again determined.
At the end of the reperfusion period, the reperfusion buffer was sampled for cumulative LDH release as previously described. LDH release was expressed as U/g preischemia heart weight for the 30 minute collection period. LDH release is a sensitive index for loss of cell viability. Determination of the relationship between pre-ischemic, post-drug cardiac function was made by dividing the double product (HR ×LVDP/1000) by the cumulative LDH release.
All data were analyzed using a one way analysis of variance. Multiple comparisons were done using the Duncan procedure. All data are expressed as the mean±SE.
The pre-ischemia DP values are a measure of the cardiodepression of the drug on the healthy cardiac tissue.
The post-ischemia LDH values are a measure of the cardioprotection or anti-ischemic activity of the drug. In this case, lower values indicate greater anti-ischemic activity or greater cardioprotection.
The LDH/DP values are the ratio of cardioprotection to cardiodepression, the lower values indicating a greater selectivity for anti-ischemic activity.
The post-ischemia DP indicates cardiodepression after the ischemic episode and the lower DP values here are indicative of agents which still remained in the cardiac tissue for more than 30 minutes post ischemia. [drawing 16]
For orientation: LDH leaks from cells whose membrane has failed.

Test [2] relates to isolated canine cardiac Purkinje fibers. In words: Calcium-dependent slow response action potential amplitude (SAPA), standard microelectrode techniques. The test is classed as cell-based. The conditions noted are these: Canis lupus familiaris, read-out: IC50 in reducing slow response action potential amplitude (SAPA). The method, then: The calcium channel blocking and sodium entry blocking activities of compounds of the present invention were tested using standard microelectrode techniques in isolated canine cardiac Purkinje fibers as reported in J. L. Bergey et al., "Antiarrhythmic, hemodynamic, and cardiac electrophysiological evaluation of N-(2,6-dimethylphenyl)-N'-[3-(1-methylethylamino)propyl]-urea), (Wy 42,362)", Arzneim -Forsch, 33:1258, 1983). […] Depression of this parameter indicates depression of calcium entry into cardiac tissue. […] Significant depression of the upstroke velocity (vmax) indicates the blocking of sodium entry into cardiac tissue.

Test [3] concerns rabbit aorta. Briefly: Reduction of tone of rabbit aorta by high potassium (Vasc. Ca^++ Block). The test is classed as cell-based. The conditions noted are these: Oryctolagus cuniculus; read-out: IC50 in reducing tone of rabbit aorta by high potassium (Vasc. Ca^++ Block). An excerpt:
|(SAPA), in reducing maximum upstroke velocity (Vmax) |and in reducing tone of rabbit aorta by high potassium |(Vasc. Ca^++ Block)

Setting [4] is: Postischemia (30 min.), 1 μM, occlusion 25 minutes, reperfusion 30 minutes.
The mark [5] stands for this setting: Preischemia (Post Drug), 1 μM, lower = more cardiodepressant.

Counter-ions that a name gives are not always drawn.

Take `COc1ccc([C@@H]2Sc3ccccc3N(CCN(C)C)C(=O)[C@@H]2OC(C)=O)cc1` [Diltiazem, reference compound]: in test [1] (Grover et al. methodology), the “ischemic selectivity among diltiazem, nifedipine and verapamil” value is “greatest ischemic selectivity”. Also, in test [1] (setting [4]), the “DP (Double Product, HR x LVDP / 1,000)” value is 24; the “FLOW (coronary blood flow)” value is listed as 17; the “HR (Heart Rate)” value is 231 beats/min; the “LVDP (Left Ventricular Developed Pressure)” value is given as 104 mmHg. In test [1] (1 μM), the “LDH (Lactate Dehydrogenase Release)” value is recorded as 10 U/g and the LDH/DP is 0.98. In test [1] (Preischemia (Post Drug), 1 μM), the “FLOW (coronary blood flow)” value is 22, the “HR (Heart Rate)” value was 217 beats/min and the “LVDP (Left Ventricular Developed Pressure)” value came out at 45 mmHg. In addition, in test [1] (setting [5]), the “DP (Double Product, HR x LVDP / 1,000)” value is on record as 10.
Take `COc1ccc(CSc2ccccc2N(CCCN(C)C)C(=O)Cc2ccccc2)cc1` [Example 2, N-[3-(Dimethylamino)propyl]-N-[2-[[(4-methoxyphenyl)methyl]thio]phenyl]benzeneacetamide, monohydrochloride]: in test [1] (setting [4]), the “DP (Double Product, HR x LVDP / 1,000)” value came to 14; the “FLOW (coronary blood flow)” value amounted to 11; the “HR (Heart Rate)” value is 188 beats/min; the “LVDP (Left Ventricular Developed Pressure)” value is recorded as 73 mmHg. In test [1] (1 μM), the “LDH (Lactate Dehydrogenase Release)” value came out at 8.9 U/g and the LDH/DP was determined as 0.30. Also, in test [1] (Preischemia (Post Drug), 1 μM), the “FLOW (coronary blood flow)” value came to 20, the “HR (Heart Rate)” value was found to be 219 beats/min and the “LVDP (Left Ventricular Developed Pressure)” value stood at 135 mmHg. Besides, the “DP (Double Product, HR x LVDP / 1,000)” value in test [1] (setting [5]) was determined as 29.
`CN(C)CCCN(C(=O)Cc1ccccc1)c1ccccc1OCc1ccccc1.O=C(O)C(=O)O` [Example 6, N-[3-(Dimethylamino)propyl]-N-[2-(phenylmethoxy)phenyl]benzeneacetamide, oxalate salt (1:1)]: in test [1] (setting [4]), the “DP (Double Product, HR x LVDP / 1,000)” value is on record as 20; the “FLOW (coronary blood flow)” value was 10; the “HR (Heart Rate)” value is reported as 222 beats/min; the “LVDP (Left Ventricular Developed Pressure)” value was found to be 89 mmHg. Moreover, in test [1] (1 μM), the “LDH (Lactate Dehydrogenase Release)” value is on record as 5.7 U/g and the LDH/DP was found to be 0.22. Further, in test [1] (Preischemia (Post Drug), 1 μM), the “FLOW (coronary blood flow)” value is recorded as 15, the “HR (Heart Rate)” value came out at 230 beats/min and the “LVDP (Left Ventricular Developed Pressure)” value was 113 mmHg. Further, in test [1] (setting [5]), the “DP (Double Product, HR x LVDP / 1,000)” value is reported as 26.
`COc1cc(SCc2ccccc2)c(N(CCCN(C)C)C(=O)Cc2ccccc2)cc1OC` [Example 8, N-[3-(Dimethylamino)propyl]-N-[4,5-dimethoxy-2-sulfonyl),[(phenylmethyl)thio]phenyl]benzeneacetamide, oxalate (1:1) salt]: in test [1] (setting [4]), the “DP (Double Product, HR x LVDP / 1,000)” value is reported as 17; the “FLOW (coronary blood flow)” value amounted to 8; the “HR (Heart Rate)” value is 246 beats/min; the “LVDP (Left Ventricular Developed Pressure)” value is on record as 71 mmHg. Besides, in test [1] (1 μM), the “LDH (Lactate Dehydrogenase Release)” value is 3.7 U/g and the LDH/DP is reported as 0.26. In test [1] (Preischemia (Post Drug), 1 μM), the “FLOW (coronary blood flow)” value was determined as 19, the “HR (Heart Rate)” value is on record as 216 beats/min and the “LVDP (Left Ventricular Developed Pressure)” value is recorded as 65 mmHg. Moreover, the “DP (Double Product, HR x LVDP / 1,000)” value in test [1] (setting [5]) is listed as 14.
As to `COc1ccc(CSc2cc(Cl)ccc2N(CCCN(C)C)C(=O)Cc2ccccc2)cc1.Cl` [Example 9, N-[3-(Dimethylamino)propyl]-N-[4-chloro-2-[[(4-methoxyphenyl)methyl]thio]phenyl]benzeneacetamide, monohydrochloride], in test [1] (setting [4]), the “DP (Double Product, HR x LVDP / 1,000)” value came out at 11; the “FLOW (coronary blood flow)” value came to 9; the “HR (Heart Rate)” value turned out to be 214 beats/min; the “LVDP (Left Ventricular Developed Pressure)” value was found to be 52 mmHg. Moreover, in test [1] (1 μM), the “LDH (Lactate Dehydrogenase Release)” value is 8.2 U/g and the LDH/DP is 0.29. In addition, in test [1] (Preischemia (Post Drug), 1 μM), the “FLOW (coronary blood flow)” value came out at 18, the “HR (Heart Rate)” value worked out at 226 beats/min and the “LVDP (Left Ventricular Developed Pressure)” value came out at 126 mmHg. In addition, the “DP (Double Product, HR x LVDP / 1,000)” value in test [1] (setting [5]) turned out to be 29. For the same molecule, the “cardioprotection compared with diltiazem” value in test [1] (post-ischemia LDH, 1 μM) was “comparable to diltiazem in cardioprotection”.
Turning to `CN(C)CCCCN(C(=O)Cc1ccccc1)c1ccccc1SCc1ccccc1` [Example 5, N-[4-(Dimethylamino)butyl]-N-[2-[(phenylmethyl)thio]phenyl]benzeneacetamideoxalate (1:1) salt], in test [1] (setting [4]), the “DP (Double Product, HR x LVDP / 1,000)” value was found to be 10; the “FLOW (coronary blood flow)” value came out at 11; the “HR (Heart Rate)” value stood at 180 beats/min; the “LVDP (Left Ventricular Developed Pressure)” value stood at 51 mmHg. Moreover, in test [1] (1 μM), the “LDH (Lactate Dehydrogenase Release)” value is 16.5 U/g and the LDH/DP was 0.57. Further, in test [1] (Preischemia (Post Drug), 1 μM), the “FLOW (coronary blood flow)” value worked out at 15, the “HR (Heart Rate)” value turned out to be 253 beats/min and the “LVDP (Left Ventricular Developed Pressure)” value was 115 mmHg. Also, the “DP (Double Product, HR x LVDP / 1,000)” value in test [1] (setting [5]) turned out to be 29.
Consider `CN(C)CCCN(C(=O)c1ccccc1)c1ccccc1SCc1ccccc1.Cl` [Example 7, 2'-(Benzylthio)-N-[3-(dimethylamino)propyl]benzanilide, hydrochloride], for which, in test [1] (setting [4]), the “DP (Double Product, HR x LVDP / 1,000)” value was determined as 15; the “FLOW (coronary blood flow)” value turned out to be 8; the “HR (Heart Rate)” value is listed as 220 beats/min; the “LVDP (Left Ventricular Developed Pressure)” value worked out at 72 mmHg. Further, in test [1] (1 μM), the “LDH (Lactate Dehydrogenase Release)” value worked out at 6.7 U/g and the LDH/DP is reported as 0.24. For the same molecule, in test [1] (Preischemia (Post Drug), 1 μM), the “FLOW (coronary blood flow)” value came to 11, the “HR (Heart Rate)” value is 218 beats/min and the “LVDP (Left Ventricular Developed Pressure)” value was 132 mmHg. Also, the “DP (Double Product, HR x LVDP / 1,000)” value in test [1] (setting [5]) came to 29.
For `CN(C)CCN(C(=O)Cc1ccccc1)c1ccccc1SCc1ccccc1.Cl` [Example 4, N-[2-(Dimethylamino)ethyl]-N-[2-[(phenylmethyl)thio]phenyl]benzeneacetamide, monohydrochloride], in test [1] (setting [4]), the “DP (Double Product, HR x LVDP / 1,000)” value is on record as 15; the “FLOW (coronary blood flow)” value is on record as 15; the “HR (Heart Rate)” value is reported as 239 beats/min; the “LVDP (Left Ventricular Developed Pressure)” value amounted to 60 mmHg. In test [1] (1 μM), the “LDH (Lactate Dehydrogenase Release)” value was determined as 21 U/g and the LDH/DP worked out at 0.79. Further, in test [1] (Preischemia (Post Drug), 1 μM), the “FLOW (coronary blood flow)” value was found to be 20, the “HR (Heart Rate)” value is on record as 236 beats/min and the “LVDP (Left Ventricular Developed Pressure)” value is 123 mmHg. In test [1] (setting [5]), the “DP (Double Product, HR x LVDP / 1,000)” value was determined as 30.
Broadly, the IC50 is the midpoint of a concentration-inhibition curve. On to `CN(C)CCCCN(C(=O)C=Cc1ccccc1)c1ccccc1SCc1ccccc1` [Example 24, N-[4-(Dimethylamino)butyl]-3-phenyl-N-[2-[(phenylmethyl)thio]phenyl]-2-propenamide, oxalate salt (1:1)], for which the IC50 in test [2] stood at 2600 nM; in test [3], 1200 nM.

These data come from US5116851A, “Pharmaceutical composition and method for treating cardiovascular diseases using substituted anilides and sulfonamides” (E. R. Squibb & Sons, Inc., priority 1990, dated 1992).
